Source: US5449673A, “10,11-dihydro-10-(3-substituted-1-oxo-2-propyl, propenyl or propynyl)dibenz[b,f][1,4] oxazepine prostaglandin antagonists” (G. D. Searle & Co., priority 1994, dated 1995)
Where a name gives a salt, the structure may show the parent alone. Read-outs that look alike come from different tables or passages of the source. One block for each compound: values may come before it.

How the values were obtained:
mice = assay: PBQ Writhing Assay (analgesia in mice); assay type: in vivo, mouse (Charles River male albino mice); settings: for rank order of potency in the Writhing Assay: more potent compounds tested; for responders at 30 mg/kg: 0.5 h, 30 mg per kg, 30 min before PBQ, fraction out of 9 or 10 mice
Text: The Writhing Assay is one of the most widely-used experimental procedures for measuring the analgesic activity of different narcotic and nonnarcotic analgesic agents, and involves the continuous, chemically-induced pain of visceral origin to an animal, such as a mouse or rat. [Gyires et al., Arch. int. Pharmacodyn, 267, 131-140 (1984); C. Vander Wende et al., Fed. Proc., 15, 494 (1956); Koster et al., Fed. Proc., 18, 412 (1959); and Witken et al., J. Pharmacol. exp. Ther., 133, 400-408 (1961).] Chemicals which may be used to induce this pain include phenylbenzoquinone (PBQ) and acetic acid. As a result of the chemical irritation to the animal, a characteristic stretching and writhing of the animal (dorsiflexion of the animal's back, extension of its hindlimbs and the strong contraction of its abdominal musculature) will generally occur. […] Drugs which reduce the number of writhes of the animal appear to restore the normal nociceptive threshold of the animal.
Charles River male albino mice, weighing 20 to 30 grams were used in this assay.
Thirty minutes after subcutaneous or intragastric administration to ten mice of 30 mg per kilogram of body weight of a compound of the present invention ("test compound"), […] per 10 g of body weight of a 0.025% w/v solution of PBQ was injected intraperitoneally into each mouse. Ten mice which were given saline in place of a test compound of the invention were used as a control group.
Five minutes later, each mouse was individually placed into a glass beaker for observation, and the number of writhes occurring during the following tenminute period was counted.
A test compound was considered to have produced analgesia in a mouse if, in accordance with the conditions set forth above, and under the test criteria employed for this assay, after the administration of 30 mg per kilogram of body weight of a compound of the present invention to the mouse, the number of writhes elicited by a mouse injected with PBQ was equal to, or less than, one-half the median number of writhes recorded for the saline-treated control group of mice that day, as described by Taber in "Predictive Value of Analgesic Assays in Mice and Rats," Advances in Biochemical Psychopharmacology, 8, 191 (1974).
The standard initial screening dose of a test compound employed in this assay was […] for both routes of administration. If this initial screening dose of the test compound produced analgesia in seven of ten mice, then the effect of additional doses of the test compound on the writhing response was evaluated, and then the ED50 dose was generally calculated. (The slopes of the dose-response curves for all test compounds analyzed were compared as described by Taltarida and Murray, Manual of Pharmacologic Calculations, Page 11 (Springer Verlag, New York, 1981)).
The results for the particular compounds of the present invention analyzed in this assay, and discussed in the examples identified below which correspond thereto, are presented in Table I hereinbelow under the heading "PBQ WRITHING ASSAY". The fractions indicate the number of mice out of 9 or 10 in which the initial screening dose of a test compound produced analgesia. The numbers which are not fractions represent ED50 doses.

[1] = target: T1, prostaglandin E2-induced contractions of segments of guinea pig ileum (Cavia porcellus, UniProt A0A286XHJ6); assay: Prostaglandin (PGE) Antagonism Assay, inhibition of prostaglandin E2-induced contractions of guinea pig ileum segments; parameters: species or system guinea pig (male albino); settings: 37° C., Schild plot, read-out: PGE ANTAGONISM IN GUINEA PIG ILEUM (pA2) (converted)
T1 construct: Segments of ileum about 2 cm long were then cut and mounted in a 10-mL tissue bath; from tissue; host or cells: ileum segments of male albino guinea pigs
T1 sequence (A0A286XHJ6 1-405): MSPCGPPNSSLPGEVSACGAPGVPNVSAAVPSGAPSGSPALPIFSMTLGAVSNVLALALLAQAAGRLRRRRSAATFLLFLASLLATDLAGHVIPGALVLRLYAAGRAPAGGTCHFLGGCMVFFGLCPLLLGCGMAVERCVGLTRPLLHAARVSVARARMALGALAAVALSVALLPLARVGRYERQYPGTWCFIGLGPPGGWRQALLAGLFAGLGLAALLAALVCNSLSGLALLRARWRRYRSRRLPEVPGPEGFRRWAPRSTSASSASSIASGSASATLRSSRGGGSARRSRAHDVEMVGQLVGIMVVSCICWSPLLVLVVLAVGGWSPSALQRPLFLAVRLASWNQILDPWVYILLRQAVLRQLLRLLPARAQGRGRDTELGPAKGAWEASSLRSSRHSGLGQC
Method: In order to determine the effectiveness of several of the compounds of the present invention ("test compounds") as prostaglandin E2 antagonists,a prostaglandin antagonism assay was conducted, as described below, to determine the ability of these compounds to inhibit prostaglandin E2 -induced contractions of segments of guinea pig ileum.
Male albino guinea pigs weighing 200 to 500 grams were sacrificed by cervical dislocation.
The ileums were then quickly removed from the guinea pigs and placed in a modified Tyrode solution, a solution which is known to those of skill in the art, containing one-half of the usual amount of magnesium ions.
Segments of ileum about 2 cm long were then cut and mounted in a 10-mL tissue bath containing the modified Tyrode solution. The solution was maintained at 37° C. and aerated with a gaseous mixture of 95% oxygen and 5% carbon dioxide.
Submaximal contractions of the ileum segments were then generated by injecting prostaglandin E2 into the bath, and detected isotonically. Data for a control prostaglandin E2 dose response curve plotting concentration of prostaglandin E2 versus number of contractions generated was then obtained by experimentally adjusting the dose of the prostaglandin E2 being injected into the tissue bath, in a manner known by those of skill in the art.
Solutions or suspensions containing an initial amount of a test compound in modified Tyrode solution ("test solutions/suspensions") were then separately substituted for the tissue bath. Each test solution/suspension was then kept in constant contact with the ileum tissue, except for brief periods to drain the bath in preparation for rinsing with fresh test solution/suspension. Different doses of prostaglandin E2 were again injected into the test solutions/suspensions.
A second prostaglandin E2 dose response curve was then generated for PGE2 in the presence of a test compound.
A dose ratio of EC50 doses (that dose of a compound or drug which is necessary to elicit a 50% maximal biological response and, thus, which is necessary to elicit a 50% reduction in the contractions of %he guinea pig ileum segments in this assay) was then calculated from the results of each test in a manner known by those of skill in the art. […]
If the initial concentration of a test compound was determined to be "active," then varying concentrations of the test compound were then assayed.
The pA2 value (a statistical constant which is a common measure of expressing the potency of a particular drug as a competitive antagonist) was then calculated for each test compound by schild plot calculations, as described by H. O. Schild, "pA A New , Scale for the Measurement of Drug Antagonism, " Br. J. Pharmacol, 2, 189 (1947), according to the following mathematical formula: […]

[2] = tested on: isolated smooth muscle preparations; settings: cited from earlier work
[3] = tested on: urethane-anesthetized rats; settings: cited from earlier work
[4] = Mus musculus, po, intragastric, mice, read-out: PBQ WRITHING ASSAY, No. Out of 10 (mice in which the initial screening dose produced analgesia), I.G. (converted)
[5] = Mus musculus, sc, subcutaneous, mice, read-out: PBQ WRITHING ASSAY, No. Out of 10 (mice in which the initial screening dose produced analgesia), S.C. (converted)

Kb [1]: 102 nM
Structure (SMILES): O=C(CCC(=O)N1Cc2ccccc2Oc2ccc(Cl)cc21)CCc1ccncc1 [Example 17, 8-chloro-10-[1,4-dioxo-6-(4-pyridinyl)hexyl]-10,11-dihydrodibenz[b,f][1,4]-oxazepine, monohydrochloride]
ED50 (mice; Mus musculus, po, intragastric, mice, ED50 dose, read-out: PBQ WRITHING ASSAY, ED50, I.G.): 5.4 mg/kg
most potent compound tested in the Writhing Assay (mice; in words): the most potent compound of the invention tested in this assay
rank order of potency in the Writhing Assay (mice): Example 17 > Example 9 > Example 4 > Example 8 > Example 5 > Example 12

Structure (SMILES): CCCCCC(=O)/C=C/C(=O)N1Cc2ccccc2Oc2ccc(Cl)cc21 [Example 13, 8-chloro-10,11-dihydro-10-(1,4-dioxo-2E-nonenyl)dibenz[b,f][1,4]oxazepin]
responders at 30 mg/kg (mice; [4]): 10%
responders at 30 mg/kg (mice; [5]): 22.2%

Structure (SMILES): CCCCC(C)(C/C=C\C(=O)N1Cc2ccccc2Oc2ccc(Cl)cc21)O[Si](C)(C)C (centres unmarked) [Example 4, 8-chloro-10,11-dihydro-10-[5-methyl-1-oxo-5-[(trimethylsilyl)oxy]-2Z-nonenyl]-dibenz[b,f][1,4]oxazepine]
responders at 30 mg/kg (mice; [4]): 50%
responders at 30 mg/kg (mice; [5]): 80%

Structure (SMILES): CCCCCC(O)C#CC(=O)N1Cc2ccccc2Oc2ccc(Cl)cc21 (centres unmarked) [Example 15, 8-chloro-10,11-dihydro-10-(4-hydroxy-1-oxo-2-nonynyl)dibenz[b,f][1,4]oxazepine]
responders at 30 mg/kg (mice; [4]): 10%
responders at 30 mg/kg (mice; [5]): 30%

Structure (SMILES): CC(=O)NNC(=O)N1Cc2ccccc2Oc2ccc(Cl)cc21 [SC-19220]
inhibition of the stimulant actions of prostaglandins [2]: inhibit the stimulant actions of prostaglandins on isolated smooth muscle preparations
bladder capacity [3]: increased the bladder capacity
voiding efficiency of micturition [3]: reduced the voiding efficiency of micturition

Structure (SMILES): O=C(Cc1ccccc1)NNC(=O)N1Cc2ccccc2Oc2ccc(Cl)cc21 [SC-18637]
inhibition of the stimulant actions of prostaglandins [2]: inhibit the stimulant actions of prostaglandins on isolated smooth muscle preparations

Structure (SMILES): CCCCCC(/C=C/C(=O)N1Cc2ccccc2Oc2ccc(Cl)cc21)OC(=O)CN (centres unmarked) [Example 12, glycine, 1-[3-(8-chloro-10,11-dihydrodibenz-[b,f][1,4]oxazepin-10-yl)-3-oxo-1E-propenyl]-hexyl ester, monohydrochloride]
responders at 30 mg/kg (mice; [4]): 55.6%
responders at 30 mg/kg (mice; [5]): 30%
rank order of potency in the Writhing Assay (mice): Example 17 > Example 9 > Example 4 > Example 8 > Example 5 > Example 12

Kb [1]: 214 nM
Structure (SMILES): CCCCCC(O)/C=C/C(=O)N1Cc2ccccc2Oc2ccc(Cl)cc21 (centres unmarked) [Example 11]
responders at 30 mg/kg (mice; [4]): 20%
responders at 30 mg/kg (mice; [5]): 30%

Kb [1]: 166 nM
Structure (SMILES): CCCCC(C)(O)C/C=C/C(=O)N1Cc2ccccc2Oc2ccc(Cl)cc21 (centres unmarked) [Example 6, 8-chloro-10,11-dihydro-10-(5-hydroxy-5-methyl-1-oxo-2E-nonenyl)dibenz[b,f][1,4]oxazepine]
responders at 30 mg/kg (mice; [4]): 40%
responders at 30 mg/kg (mice; [5]): 40%

Structure (SMILES): CCCCCC(C)(/C=C/C(=O)N1Cc2ccccc2Oc2ccc(Cl)cc21)O[Si](C)(C)C (centres unmarked) [Example 8, 8-chloro-10,11-dihydro-10-[4-methyl-1-oxo-4-[(trimethylsilyl)oxy]-2E-nonenyl]dibenz-[b,f][1,4]oxazepine]
responders at 30 mg/kg (mice; [4]): 60%
responders at 30 mg/kg (mice; [5]): 40%

Kb [1]: 617 nM
Structure (SMILES): CCCCCC(C)(O)/C=C/C(=O)N1Cc2ccccc2Oc2ccc(Cl)cc21 (centres unmarked) [Example 9, 8-chloro-10,11-dihydro-10-(4-hydroxy-4-methyl-1-oxo-2E-nonenyl)dibenz[b,f][1,4]oxazepine]
responders at 30 mg/kg (mice; [4]): 50%
responders at 30 mg/kg (mice; [5]): 90%

Structure (SMILES): CCCCC(C)(C/C=C/C(=O)N1Cc2ccccc2Oc2ccc(Cl)cc21)O[Si](C)(C)C (centres unmarked) [Example 5, 8-chloro-10,11-dihydro-10-[5-methyl-1-oxo-5-[(trimethylsilyl)oxy]-2E-nonenyl]-dibenz[b,f][1,4]oxazepine]
responders at 30 mg/kg (mice; [4]): 30%
responders at 30 mg/kg (mice; [5]): 60%

Structure (SMILES): CCCCCC/C=C/C(=O)N1Cc2ccccc2Oc2ccc(Cl)cc21 [Example 14, 8-chloro-10,11-dihydro-10-(1-oxo-2E-nonenyl)dibenz[b,f][1,4]oxazepine]
responders at 30 mg/kg (mice; [4]): 10%
responders at 30 mg/kg (mice; [5]): 10%
